The assay relates to aortic smooth muscle strips. Briefly: Dose-response relationship to 8-Br-cGMP, relaxation of aortic smooth muscle strips from treated rats. The class given is in vivo, rat. As to conditions: post-infarct animals treated with captopril, at both 2 and 4 weeks; P>0.05. An excerpt:
After intubation, rats were ventilated continuously (room air) using a small animal ventilator (Model 683, Harvard Apparatus, Holliston, Mass.). A left lateral thoracotomy incision was made along the 5th intercostal space and after the pericardium was opened, the heart was exteriorized using a retention suture placed at the apex. The left anterior descending coronary artery (LAD) was ligated twice using 6-0 prolene suture (Ethicon, Cornelia, Ga.). After chest closure with running 3-0 vicryl suture (Ethicon), rats were put in a recovery chamber with a heating pad and warming light. The post-operative survival rate reached 80%. […] Rats were fed a standard diet of Teklad rodent feed (Harlan) ad libitum and kept on a 12:12 h light-dark cycle. Rats were sacrificed at designated time intervals of 2 weeks and 4 weeks after surgery. […] Determination of the dose-response relationship to cGMP: Aortic smooth muscle strips were isolated from rats in the uninfarcted control group without treatment and from both placebo as well as captopril treated group at 2 weeks and 4 weeks post-LAD ligation to determine the dose-response relationship to cGMP. […] After the force reached a steady state, the dose-response relationship to 8-Br-cGMP (Calbiochem, San Diego, Calif.) was determined.

Each structure is given as a SMILES string.

`C[C@H](CS)C(=O)N1CCC[C@H]1C(=O)O` [Captopril, 1-[(2S)-3-mercapto-2-methylpropionyl]-L-proline]: the “sensitivity of cGMP-mediated relaxation versus uninfarcted control aorta” value is on record as “not different”.

The values above are taken from patent publication US8293481B2, “Biomarkers for chronic vascular dysfunction” (Mayo Foundation for Medical Education and Research, priority 2006, dated 2012).
